Measured values: article PMC10938262 (Science translational medicine, 2023)

Molecular target: T1, human estrogen receptor α (ERα) (Homo sapiens, UniProt P03372)
T1 sequence (P03372 302-552 limits assumed): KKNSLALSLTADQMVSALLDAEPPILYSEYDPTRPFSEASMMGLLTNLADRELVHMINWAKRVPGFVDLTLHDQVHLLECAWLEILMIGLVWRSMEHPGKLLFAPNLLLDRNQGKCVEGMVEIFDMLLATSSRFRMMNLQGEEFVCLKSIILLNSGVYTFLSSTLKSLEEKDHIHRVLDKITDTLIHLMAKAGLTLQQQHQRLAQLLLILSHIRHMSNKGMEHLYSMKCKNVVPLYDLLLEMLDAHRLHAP
Format: binding

- Ki: 0.3 ± 0.1 nM
Structure (SMILES): C[C@]12CC[C@@H]3c4ccc(O)cc4CC[C@H]3[C@@H]1C[C@@H](F)[C@@H]2O [FES, 16α-fluoroestradiol]
